Test results reported in the NIST ThermoML archive (doi:10.1007/s10765-009-0602-6).
Values joined by “and” are separate entries in the source; they are usually repeats but may differ in a detail not shown here. Equal entries are not always repeated.

Assay: xn = mol fraction of the nth substance listed
Details: Liquid, Other PVT measurement, x1 = 0.2607

N [ammonia] + O
Details | mass density
508.07 K | 671.23 kg/m3
519.77 K | 649.65 kg/m3
545.62 K | 594.32 kg/m3
561.03 K | 552.58 kg/m3
565.36 K | 540.25 kg/m3
580.18 K | 476.26 kg/m3
584.95 K | 456.58 kg/m3
585.31 K | 120.03 kg/m3
594.14 K | 147.43 kg/m3
595.16 K | 376.89 kg/m3
597.36 K | 160.07 kg/m3
597.56 K | 342.19 kg/m3
598.33 K | 329 kg/m3
598.96 K | 320.33 kg/m3
599.42 K | 312.91 kg/m3
599.57 K | 311.19 kg/m3
599.67 K | 310.95 kg/m3
599.78 K | 308.35 kg/m3
599.89 K | 307.35 kg/m3
600.02 K | 305.44 kg/m3
600.17 K | 303.47 kg/m3
600.29 K | 301.94 kg/m3
600.48 K | 299.79 kg/m3
600.63 K | 297.6 kg/m3
600.81 K | 295.31 kg/m3
600.93 K | 292.97 kg/m3
601.05 K | 291.16 kg/m3
601.16 K | 188.05 kg/m3
601.34 K | 285.71 kg/m3
601.75 K | 195.99 kg/m3
602.05 K | 271.09 kg/m3
602.26 K | 206 kg/m3
602.45 K | 260.02 kg/m3
602.74 K | 214.83 kg/m3
602.85 K | 218.92 kg/m3
602.91 K | 243.98 kg/m3
602.96 K | 230.31 kg/m3 and 224.53 kg/m3
602.97 K | 227.54 kg/m3
